Converted amounts (≈) assume the structure as drawn.
Tests used:
[1] = Aqueous solubility of the compound at pH 6.8; assay type: physicochemical
[2] = target: Voltage-gated inwardly rectifying potassium channel KCNH2 (Homo sapiens, UniProt Q12809); assay: Binding affinity to human ERG by radioligand binding assay
Chain of Voltage-gated inwardly rectifying potassium channel KCNH2 (Q12809 whole entry): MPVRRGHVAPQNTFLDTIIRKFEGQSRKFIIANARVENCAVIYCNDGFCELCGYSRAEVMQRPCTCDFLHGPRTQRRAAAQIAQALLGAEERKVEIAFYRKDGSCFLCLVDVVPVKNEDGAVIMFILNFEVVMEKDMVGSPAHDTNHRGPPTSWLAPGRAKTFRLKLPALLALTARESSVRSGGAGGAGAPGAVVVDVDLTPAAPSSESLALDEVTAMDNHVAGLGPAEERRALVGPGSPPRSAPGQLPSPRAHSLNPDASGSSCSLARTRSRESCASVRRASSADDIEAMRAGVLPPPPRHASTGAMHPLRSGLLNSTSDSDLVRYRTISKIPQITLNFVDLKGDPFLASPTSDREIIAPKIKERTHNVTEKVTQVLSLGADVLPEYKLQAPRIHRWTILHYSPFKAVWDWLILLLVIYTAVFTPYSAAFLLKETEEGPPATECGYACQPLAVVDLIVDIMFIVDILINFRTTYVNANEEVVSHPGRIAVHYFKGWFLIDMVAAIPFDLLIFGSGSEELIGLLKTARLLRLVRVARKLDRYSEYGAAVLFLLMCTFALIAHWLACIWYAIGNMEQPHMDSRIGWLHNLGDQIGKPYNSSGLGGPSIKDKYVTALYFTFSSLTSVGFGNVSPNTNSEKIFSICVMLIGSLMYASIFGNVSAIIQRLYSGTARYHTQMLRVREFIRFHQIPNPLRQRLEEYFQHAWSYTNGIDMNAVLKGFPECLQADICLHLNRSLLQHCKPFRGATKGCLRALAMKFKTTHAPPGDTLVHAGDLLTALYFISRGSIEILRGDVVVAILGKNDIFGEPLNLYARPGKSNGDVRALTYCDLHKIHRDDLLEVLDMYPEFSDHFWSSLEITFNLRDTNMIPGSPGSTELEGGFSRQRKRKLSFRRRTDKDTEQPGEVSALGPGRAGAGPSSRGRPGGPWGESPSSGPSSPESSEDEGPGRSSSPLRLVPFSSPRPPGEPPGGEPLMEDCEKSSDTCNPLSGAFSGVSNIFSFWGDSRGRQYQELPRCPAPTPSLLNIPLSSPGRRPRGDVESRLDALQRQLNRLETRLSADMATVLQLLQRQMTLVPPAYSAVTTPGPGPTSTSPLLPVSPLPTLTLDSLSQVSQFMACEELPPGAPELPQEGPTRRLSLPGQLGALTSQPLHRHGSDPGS

Row | Structure (SMILES) | solubility [1] | IC50 [2]
1 | CC(C)(C)c1cc(NC(=O)n2ccc3nc(Oc4ncnc5c4CNC5)ccc32)no1 | 260 µM (≈ 109 µg/mL) | 26 µM
2 | C[C@H]1Cc2c(ncnc2Oc2ccc3ccn(C(=O)Nc4cc(C5(C(F)(F)F)CC5)on4)c3c2)CN1 | 3 µM (≈ 1.5 µg/mL) | 8.6 µM
3 | C[C@H]1Cc2c(ncnc2Oc2ccc3c(ccn3C(=O)Nc3cc(C4(C(F)(F)F)CC4)on3)c2)CN1 | 34 µM (≈ 16.9 µg/mL) | 7.4 µM
4 | CC(C)(C)c1cc(NC(=O)c2cnc3cc(Oc4ncnc5c4CNC5)ccn23)no1 | 456 µM (≈ 191 µg/mL) | 9.2 µM
5 | CC1(c2cc(NC(=O)c3ccn4cc(Oc5ncnc6c5CNC6)ccc34)n[nH]2)CC1 | 280 µM (≈ 116 µg/mL) | –
6 | CC(C)(C)c1cc(NC(=O)n2ccc3ncc(Oc4ncnc5c4CNC5)cc32)no1 | 240 µM (≈ 101 µg/mL) | > 30 µM

Continued, in another order:

Row | solubility [1] | Structure (SMILES) | IC50 [2]
7 | 9 µM (≈ 3.78 µg/mL) | CC(C)(C)c1cc(NC(=O)n2ncc3cc(Oc4ncnc5c4CNC5)ccc32)no1 | 7.7 µM
8 | 25 µM (≈ 10.5 µg/mL) | CC(C)(C)c1cc(NC(=O)n2ccc3cc(Oc4ncnc5c4CNC5)cnc32)no1 | 5.7 µM
9 | 81 µM (≈ 33.9 µg/mL) | CC(C)(C)c1cc(NC(=O)n2ccc3ccc(Oc4ncnc5c4CNC5)cc32)no1 | 21 µM

From ChEMBL document CHEMBL3808377, “Core Replacements in a Potent Series of VEGFR-2 Inhibitors and Their Impact on Potency, Solubility, and hERG” (ACS Med Chem Lett, 2016)
